Test results reported in patent publication US8709719B2, “ZNF217 a new prognostic and predictive biomarker of recurrent invasive and metastatic phenotypes in breast cancer” (Centre Leon Berard, priority 2009, dated 2014).

Tests used:
MVLN cells = experiment: Cell proliferation assay (BrdU) in MVLN cells; format: cell-based; settings: 200 nM OH-Tam
Protocol: (§1) FIG. 13: Endocrine resistance is reversed in the presence of an siRNA-ZNF217 in OH-Tam-resistant CL6.7 cells. Total protein extracts from cell lines were analyzed by Western blotting with an anti-ZNF217. Expression of α-tubulin was used as an invariant control. (A) Western-blot analysis of ZNF217 in transfected MVLN and CL6.7 cells with either scrambled RNA or with an siRNA-ZNF217. (B) Cell proliferation (BrdU test) of transfected MVLN and CL6.7 cells with either scrambled RNA or siRNA-ZNF217, in the presence or the absence of 200 nM OH-Tam. This assay was performed in steroid-free medium. P-value (Student's t-test) was considered as significant when P<0.05.
(§2) MCF7 and MDA-MB-231 breast cancer cells were purchased from ATCC and grown according to recommendations in DMEM medium supplemented with 10% fetal bovine serum (Invitrogen, Cergy Pontoise, Paris). S30 cells and their MDA-MB-231 control cells have been previously described (Levenson et al., 2003). The cellular model of endocrine resistance (MVLN and CL6.7 cells) have been previously established and described (Demirpence et al., 1993).
(§3) Proliferating cells were analyzed using the Cell Proliferation ELISA, BrdU (colorimetric) Kit (Roche, Meylan, France). […]

CL6.7 cells = experiment: Cell proliferation assay (BrdU) in OH-Tam-resistant CL6.7 cells; format: cell-based; settings: 200 nM OH-Tam
Protocol: as §1, §2, §3

In the case of CC/C(=C(\c1ccc(O)cc1)c1ccc(OCCN(C)C)cc1)c1ccccc1 [OH-Tam, OH-Tamoxifen], the “effect of OH-Tam exposure on cell proliferation” value (MVLN cells; MVLN cells (OH-Tam-sensitive), steroid-free medium) is reported as “cytostatic activity”, the “sensitivity to endocrine therapy (cell proliferation)” value (MVLN cells; MVLN cells, OH-Tam exposure combined with ZNF217 knockdown (siRNA), P=0.001) is reported as “increased sensitivity to endocrine therapy” and the “effect of OH-Tam exposure on cell proliferation” value (CL6.7 cells; CL6.7 cells (OH-Tam-resistant), steroid-free medium) is reported as “strong stimulation of CL6.7 cell proliferation”. For the same compound, the “inhibition of cell proliferation” value (CL6.7 cells; CL6.7 cells, OH-Tam exposure combined with ZNF217 knocking-out (siRNA), P<10^-5) was 35%.
